pIC50: −log10 of the molar value. Blank lines part the entries; values can stand above or below the compound they belong to. Activity calls are given as the source filed them. The calls are words filed in the database; no cut-off is given here.
Tests used:
Fibroblast [1] = assay: Relative expression of human SOD1 expressed in mouse fibroblasts at 10 uM after 48 hrs by ELISA
Fibroblast [2] = assay: Inhibition of human SOD1 expressed in mouse fibroblasts at 10 uM after 48 hrs by ELISA relative to control; format: functional
[3] = Drug uptake in serum of mouse expressing SOD1 G93A mutant at 10 mg/kg, ip after 2 hrs; format: ADME, organism-based; parameters: dose 10 mg/kg, route intraperitoneal; conditions: read-out: Drug uptake
[4] = Drug uptake in brain of mouse expressing SOD1 G93A mutant at 10 mg/kg, ip after 2 hrs; format: ADME, organism-based; parameters: dose 10 mg/kg, route intraperitoneal; conditions: read-out: Drug uptake
Fibroblast [5] = assay: Inhibition of human SOD1 expressed in mouse fibroblasts after 48 hrs by ELISA relative to control; format: functional, cell-based; conditions: for pIC50: Mus musculus, Fibroblast, 48 h, read-out: IC50
[6] = Drug uptake in serum of nontransgenic mouse at 10 mg/kg, ip after 24 hrs
Brain = assay: Drug uptake in brain of nontransgenic mouse at 10 mg/kg, ip after 24 hrs; conditions: in vivo
[7] = Drug uptake in serum of mouse expressing SOD1 G93A mutant at 10 mg/kg, ip after 4 hrs; format: ADME, organism-based; parameters: dose 10 mg/kg, route intraperitoneal; conditions: read-out: Drug uptake
[8] = Drug uptake in spinal cord of nontransgenic mouse at 10 mg/kg, ip after 4 hrs
[9] = Drug uptake in spinal cord of nontransgenic mouse at 10 mg/kg, ip after 24 hrs
[10] = Drug uptake in brain of nontransgenic mouse at 10 mg/kg, ip after 4 hrs
[11] = Drug uptake in spinal cord of mouse expressing SOD1 G93A mutant at 10 mg/kg, ip after 2 hrs; format: ADME, organism-based; parameters: dose 10 mg/kg, route intraperitoneal; conditions: read-out: Drug uptake
[12] = Drug uptake in spinal cord of mouse expressing SOD1 G93A mutant at 20 mg/kg, ip after 1 hr; format: ADME, organism-based; parameters: dose 20 mg/kg, route intraperitoneal; conditions: read-out: Drug uptake
[13] = Drug uptake in brain of mouse expressing SOD1 G93A mutant at 20 mg/kg, ip after 1 hr; format: ADME, organism-based; parameters: dose 20 mg/kg, route intraperitoneal; conditions: read-out: Drug uptake
[14] = Drug uptake in spinal cord of mouse expressing SOD1 G93A mutant at 20 mg/kg, ip after 24 hrs; format: ADME, organism-based; parameters: dose 20 mg/kg, route intraperitoneal; conditions: read-out: Drug uptake
[15] = Drug uptake in brain of mouse expressing SOD1 G93A mutant at 20 mg/kg, ip after 24 hrs; format: ADME, organism-based; parameters: dose 20 mg/kg, route intraperitoneal; conditions: read-out: Drug uptake
[16] = Drug uptake in serum of mouse expressing SOD1 G93A mutant at 20 mg/kg, ip after 1 hr; format: ADME, organism-based; parameters: dose 20 mg/kg, route intraperitoneal; conditions: read-out: Drug uptake
Mus musculus [17] = assay: Reduction in SOD1 G93A mutant expression in cerebral cortex of mouse at 20 mg/kg, ip administered every alternate day for 26 days; format: functional, organism-based; parameters: dose 20 mg/kg
Mus musculus [18] = assay: Reduction in SOD1 G93A mutant expression in spinal cord of mouse assessed as at 20 mg/kg, ip administered every alternate day for 26 days; format: functional, organism-based; parameters: dose 20 mg/kg
[19] = Drug uptake in serum of mouse expressing SOD1 G93A mutant at 20 mg/kg, ip after 24 hrs; format: ADME, organism-based; parameters: dose 20 mg/kg, route intraperitoneal; conditions: read-out: Drug uptake
Mus musculus [20] = assay: Reduction in SOD1 G93A mutant expression in brain stem of mouse at 20 mg/kg, ip administered every alternate day for 26 days; format: functional, organism-based; parameters: dose 20 mg/kg
Mus musculus [21] = assay: Reduction in SOD1 G93A mutant expression in cerebellum of mouse at 20 mg/kg, ip administered every alternate day for 26 days; format: functional, organism-based; parameters: dose 20 mg/kg

Compound: FC(F)(F)c1ccc(CSc2nnc(-c3ccncc3)o2)cc1
relative SOD1 expression at 10 µM (Fibroblast [1]): 157%

Compound: c1cc(CSc2nnc(-c3ccncc3)o2)ccn1
inhibition (Fibroblast [2]): inactive

Compound: Clc1ccc(CSc2nnc(-c3ccncc3)o2)cc1
relative SOD1 expression at 10 µM (Fibroblast [1]): 123%

concentration at 2 h [3]: 153 nM
concentration at 2 h [4]: 29 nM
concentration at 24 h [6]: 123 nM
Drug uptake (Brain): Not Active
concentration at 4 h [7]: 334 nM
concentration at 4 h [8]: 162 nM
concentration at 24 h [9]: 113 nM
concentration at 4 h [10]: 47 nM
concentration at 2 h [11]: 57 nM
Compound: COc1ccc(CSc2nnc(-c3ccncc3)o2)cc1
relative SOD1 expression at 10 µM (Fibroblast [1]): 47%
inhibition (Fibroblast [5]): Dose-dependent effect

Compound: Cc1ccc(CSc2nnc(-c3ccncc3)o2)cc1
relative SOD1 expression at 10 µM (Fibroblast [1]): 126%

Compound: O=C1Cc2c([nH]c3ccc(Br)cc23)-c2ccccc2N1 [KENPAULLONE]
pIC50 (Fibroblast [5]): 5.00

Compound: Brc1cccc(CSc2nnc(-c3ccncc3)o2)c1
relative SOD1 expression at 10 µM (Fibroblast [1]): 91%

Compound: CCCCc1c(-c2ccc(O)cc2)[nH]c2nccnc12 [ALOISINE A]
IC50 (Fibroblast [5]; fibroblast): Not Active

Compound: Brc1ccc(CSc2nnc(-c3ccncc3)o2)cc1
relative SOD1 expression at 10 µM (Fibroblast [1]): 103%

Compound: c1ccc(CSc2nnc(-c3ccncc3)o2)cc1
relative SOD1 expression at 10 µM (Fibroblast [1]): 133%

Compound: Brc1ccc(CSc2nnc(-c3cccnc3)o2)cc1
relative SOD1 expression at 10 µM (Fibroblast [1]): 68.6%

concentration at 1 h [12]: 4000 nM
concentration at 1 h [13]: 944 nM
concentration at 24 h [14]: 855 nM
concentration at 24 h [15]: 77 nM
concentration at 1 h [16]: 672 nM
concentration at 24 h [19]: 73 nM
Compound: Ic1cccc(CSc2nnc(-c3ccncc3)o2)c1
inhibition (Fibroblast [5]): Dose-dependent effect
pIC50 (Fibroblast [5]): 6.20
inhibition (Mus musculus [17]): Active
inhibition (Mus musculus [18]): Active
inhibition (Mus musculus [20]): Active
inhibition (Mus musculus [21]): Active

Compound: O=[N+]([O-])c1ccc(CSc2nnc(-c3ccncc3)o2)cc1
relative SOD1 expression at 10 µM (Fibroblast [1]): 102%

Compound: Ic1ccc(CSc2nnc(-c3ccncc3)o2)cc1
relative SOD1 expression at 10 µM (Fibroblast [1]): 69%

Compound: c1cncc(CSc2nnc(-c3ccncc3)o2)c1
inhibition (Fibroblast [2]): inactive

Compound: Cn1cc(C2=C(c3ccc(Cl)cc3Cl)C(=O)NC2=O)c2ccccc21 [SB-216763]
pIC50 (Fibroblast [5]): 5.52

Compound: O=[N+]([O-])c1cccc(CSc2nnc(-c3ccncc3)o2)c1
relative SOD1 expression at 10 µM (Fibroblast [1]): 117%

Compound: Fc1ccc(CSc2nnc(-c3ccncc3)o2)cc1
relative SOD1 expression at 10 µM (Fibroblast [1]): 86%

Compound: COc1cccc(CSc2nnc(-c3ccncc3)o2)c1
relative SOD1 expression at 10 µM (Fibroblast [1]): 50%
inhibition (Fibroblast [5]): Dose-dependent effect

Compound: O=C(CCl)c1cc(Br)c(Br)s1
pIC50 (Fibroblast [5]): 6.19

Compound: O=C1NC(=O)C(c2cn(CCCO)c3ncccc23)=C1c1cnccn1
pIC50 (Fibroblast [5]): 5.00

Compound: Clc1cccc(CSc2nnc(-c3ccncc3)o2)c1
relative SOD1 expression at 10 µM (Fibroblast [1]): 96%
